Results published in US7138361B2, “Herbicidal heterocycles” (E. I. du Pont de Nemours and Company, priority 2000, dated 2006).

Legend:
Format in all cases: in vivo
[1] = test system: Surinam grass (Brachiaria decumbens); assay: Test B preemergence
Procedure, shortened: (§1)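 Ratings on a 0 to 100 visual scale (100 complete control) compare treated plants with controls 13 to 15 days after application. Treatments were pre- or postemergence sprays of compound in non-phytotoxic solvent with surfactant.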

corn (Zea mays) [2] = assay: Test B preemergence
Procedure, shortened: as §1

[3] = test system: giant foxtail (Setaria faberii); assay: Test B preemergence
Procedure, shortened: as §1

rice (Oryza saliva) [4] = assay: Test B preemergence
Procedure, shortened: as §1

[5] = test system: pigweed (Amaranthus retroflexus); assay: Test B preemergence
Procedure, shortened: as §1

[6] = test system: velvetleaf (Abutilon theophrasti); assay: Test B preemergence
Procedure, shortened: as §1

[7] = test system: crabgrass (Digitaria sanguinalis); assay: Test B preemergence
Procedure, shortened: as §1

[8] = test system: barnyardgrass (Echinochloa crus-galli); assay: Test B preemergence
Procedure, shortened: as §1

[9] = test system: lambsquarters (Chenopodium album); assay: Test B preemergence
Procedure, shortened: as §1

[10] = test system: cocklebur (Xanthium strumarium); assay: Test B preemergence
Procedure, shortened: as §1

[11] = test system: morning glory (Ipomoea hederacea); assay: Test B preemergence
Procedure, shortened: as §1

rice (Oryza saliva) [12] = assay: Test C flooded paddy test; details: for Rice plant response rating: Flooded Paddy, Rate 500 g/ha, scale 0 to 100, 0 no effect, 100 complete control; for Plant response rating, Rice / Plant response rating (scale 0 to 100), Rice: flooded paddy test; for Plant response rating, Rice: scale 0 to 100 (0 no effect, 100 complete control); for Plant response rating (scale 0 to 100), Rice: Rate 62 g/ha, visually evaluated after 12 to 14 days, 0 = no effect, 100 = complete control
Procedure, shortened: (§2)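 Each species was cultivated to 2 leaves in flooded paddy pots, then treated. After a greenhouse period of 12–14 days, the plants were scored visually relative to controls from 0 (no effect) to 100 (complete control).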

[13] = test system: barnyardgrass (Echinochloa crus-galli); assay: Test C flooded paddy test; details: for Barnyardgrass plant response rating: Flooded Paddy, Rate 500 g/ha, scale 0 to 100, 0 no effect, 100 complete control; for Plant response rating, Barnyardgrass / Plant response rating (scale 0 to 100), Barnyardgrass: flooded paddy test; for Plant response rating, Barnyardgrass: scale 0 to 100 (0 no effect, 100 complete control); for Plant response rating (scale 0 to 100), Barnyardgrass: Rate 62 g/ha, visually evaluated after 12 to 14 days, 0 = no effect, 100 = complete control
Procedure, shortened: as §2

[14] = test system: smallflower flatsedge (Cyperus difformis); assay: Test C flooded paddy test; details: for Flatsedge plant response rating: Flooded Paddy, Rate 500 g/ha, scale 0 to 100, 0 no effect, 100 complete control; for Plant response rating, Flatsedge / Plant response rating (scale 0 to 100), Flatsedge: flooded paddy test; for Plant response rating, Flatsedge: scale 0 to 100 (0 no effect, 100 complete control); for Plant response rating (scale 0 to 100), Flatsedge: Rate 62 g/ha, visually evaluated after 12 to 14 days, 0 = no effect, 100 = complete control
Procedure, shortened: as §2

[15] = test system: duck salad (Heteranthera limosa); assay: Test C flooded paddy test; details: for Ducksalad plant response rating: Flooded Paddy, Rate 500 g/ha, scale 0 to 100, 0 no effect, 100 complete control; for Plant response rating, Ducksalad / Plant response rating (scale 0 to 100), Ducksalad: flooded paddy test; for Plant response rating, Ducksalad: scale 0 to 100 (0 no effect, 100 complete control); for Plant response rating (scale 0 to 100), Ducksalad: Rate 62 g/ha, visually evaluated after 12 to 14 days, 0 = no effect, 100 = complete control
Procedure, shortened: as §2

[16] = test system: Surinam grass (Brachiaria decumbens); assay: Test B postemergence
Procedure, shortened: as §1

corn (Zea mays) [17] = assay: Test B postemergence
Procedure, shortened: as §1

[18] = test system: giant foxtail (Setaria faberii); assay: Test B postemergence
Procedure, shortened: as §1

[19] = test system: pigweed (Amaranthus retroflexus); assay: Test B postemergence
Procedure, shortened: as §1

[20] = test system: velvetleaf (Abutilon theophrasti); assay: Test B postemergence
Procedure, shortened: as §1

[21] = test system: blackgrass (Alopecurus myosuroides); assay: Test B postemergence
Procedure, shortened: as §1

[22] = test system: crabgrass (Digitaria sanguinalis); assay: Test B postemergence
Procedure, shortened: as §1

[23] = test system: barnyardgrass (Echinochloa crus-galli); assay: Test B postemergence
Procedure, shortened: as §1

wild oat (Avena fatua) = assay: Test B postemergence
Procedure, shortened: as §1

[24] = test system: wheat (Triticum aestivum); assay: Test B postemergence
Procedure, shortened: as §1

[25] = test system: lambsquarters (Chenopodium album); assay: Test B postemergence
Procedure, shortened: as §1

[26] = test system: cocklebur (Xanthium strumarium); assay: Test B postemergence
Procedure, shortened: as §1

[27] = test system: morning glory (Ipomoea hederacea); assay: Test B postemergence
Procedure, shortened: as §1

[28] = Preemergence, Rate 500 g/ha, scale 0 to 100, 0 no effect, 100 complete control
[29] = preemergence, Rate 125 g/ha, scale of 0 to 100 where 0 is no effect and 100 is complete control, 13 to 15 days
[30] = Rate 125 g/ha, scale 0 to 100, 0 no effect, 100 complete control
[31] = Rate 500 g/ha, scale 0 to 100, 0 is no effect, 100 is complete control, 13 to 15 days
[32] = Rate 500 g/ha, scale 0 (no effect) to 100 (complete control), 13 to 15 days

With COc1cc(N2CCC(n3ccc(C(C)(C)C)n3)C2=O)cc2ccccc12 (stereo not drawn) [Compound 136] the “Plant response rating, Surinam grass” value [1, 28] was 0, the “Plant response rating, Surinam grass” value [1, 29] was 0 and the “Plant response rating, Corn” value (corn (Zea mays) [2]; [28]) was 0. For the same compound, the “Plant response rating, Corn” value (corn (Zea mays) [2]; [29]) was 0, the “Plant response rating, Foxtail, Giant” value [3, 28] was 0 and the “Plant response rating, Foxtail, Giant” value [3, 29] was 0. For the same compound, the “Plant response rating, Rice” value (rice (Oryza saliva) [4]; [28]) was 0, the “Plant response rating, Rice” value (rice (Oryza saliva) [4]; [29]) was 0 and the “Plant response rating, Pigweed” value [5, 28] was 60. For the same compound, the “Plant response rating, Pigweed” value [5, 29] was 0, the “Plant response rating, Velvetleaf” value [6, 28] was 0 and the “Plant response rating, Velvetleaf” value [6, 29] was 0. The “Plant response rating, Crabgrass” value [7, 28] was 70, the “Plant response rating, Crabgrass” value [7, 29] was 0 and the “Plant response rating, Barnyardgrass” value [8, 28] was 0. For the same compound, the “Plant response rating, Barnyardgrass” value [8, 29] was 0, the “Plant response rating, Lambsquarters” value [9, 28] was 100 and the “Plant response rating, Lambsquarters” value [9, 29] was 100. For the same compound, the “Plant response rating, Cocklebur” value [10, 28] was 0, the “Plant response rating, Cocklebur” value [10, 29] was 0 and the “Plant response rating, Morningglory” value [11, 28] was 0. The “Plant response rating, Morningglory” value [11, 29] was 0, the “Rice plant response rating” value (rice (Oryza saliva) [12]) was 0 and the “Plant response rating, Rice” value (rice (Oryza saliva) [12]; Rate 125 g/ha) was 0. The “Plant response rating, Rice” value (rice (Oryza saliva) [12]; Rate 250 g/ha) was 0, the “Plant response rating (scale 0 to 100), Rice” value (rice (Oryza saliva) [12]) was 0 and the “Barnyardgrass plant response rating” value [13] was 0. For the same compound, the “Plant response rating, Barnyardgrass” value ([13]; Rate 125 g/ha) was 0, the “Plant response rating, Barnyardgrass” value ([13]; Rate 250 g/ha) was 0 and the “Plant response rating (scale 0 to 100), Barnyardgrass” value [13] was 0. For the same compound, the “Flatsedge plant response rating” value [14] was 0, the “Plant response rating, Flatsedge” value ([14]; Rate 125 g/ha) was 0 and the “Plant response rating, Flatsedge” value ([14]; Rate 250 g/ha) was 0. The “Plant response rating (scale 0 to 100), Flatsedge” value [14] was 0, the “Ducksalad plant response rating” value [15] was 0 and the “Plant response rating, Ducksalad” value ([15]; Rate 125 g/ha) was 0. For the same compound, the “Plant response rating, Ducksalad” value ([15]; Rate 250 g/ha) was 0, the “Plant response rating (scale 0 to 100), Ducksalad” value [15] was 0 and the “Plant response rating, Surinam grass” value [16, 30] was 0. For the same compound, the “Plant response rating, Surinam grass” value [16, 31] was 0, the “Plant response rating, Corn” value (corn (Zea mays) [17]; [30]) was 0 and the “Plant response rating, Corn” value (corn (Zea mays) [17]; [31]) was 0. For the same compound, the “Plant response rating, Foxtail, Giant” value [18, 30] was 0, the “Plant response rating, Pigweed” value [19, 30] was 0 and the “Plant response rating, Velvetleaf” value [20, 30] was 0. For the same compound, the “Plant response rating, Blackgrass” value [21, 30] was 0, the “Plant response rating, Blackgrass” value [21, 31] was 0 and the “Plant response rating, Crabgrass” value [22, 30] was 0. For the same compound, the “Plant response rating, Barnyardgrass” value [23, 30] was 0, the “Plant response rating, Barnyardgrass” value [23, 31] was 0 and the “Plant response rating, Wild Oat” value (wild oat (Avena fatua); [30]) was 0. The “Plant response rating, Wheat” value [24, 30] was 0, the “Plant response rating, Lambsquarters” value [25, 30] was 0 and the “Plant response rating, Cocklebur” value [26, 30] was 0. The “Plant response rating, Cocklebur” value [26, 31] was 0 and the “Plant response rating, Morningglory” value [27, 30] was 0.
In the case of COc1cc(C)nc(N2CCC(n3ccc(C(C)(C)C)n3)C2=O)n1 (stereo not drawn) [Compound 137], the “Plant response rating, Surinam grass” value [1, 28] is reported as 50, the “Plant response rating, Surinam grass” value [1, 29] is reported as 0 and the “Plant response rating, Corn” value (corn (Zea mays) [2]; [28]) is reported as 0. The “Plant response rating, Corn” value (corn (Zea mays) [2]; [29]) was 0, the “Plant response rating, Foxtail, Giant” value [3, 28] was 0 and the “Plant response rating, Foxtail, Giant” value [3, 29] was 0. The “Plant response rating, Rice” value (rice (Oryza saliva) [4]; [28]) was 70, the “Plant response rating, Rice” value (rice (Oryza saliva) [4]; [29]) was 30 and the “Plant response rating, Pigweed” value [5, 28] was 0. For the same compound, the “Plant response rating, Pigweed” value [5, 29] was 0, the “Plant response rating, Velvetleaf” value [6, 28] was 80 and the “Plant response rating, Velvetleaf” value [6, 29] was 0. The “Plant response rating, Crabgrass” value [7, 28] was 80, the “Plant response rating, Crabgrass” value [7, 29] was 0 and the “Plant response rating, Barnyardgrass” value [8, 28] was 40. The “Plant response rating, Barnyardgrass” value [8, 29] was 0, the “Plant response rating, Lambsquarters” value [9, 28] was 0 and the “Plant response rating, Lambsquarters” value [9, 29] was 0. The “Plant response rating, Cocklebur” value [10, 28] was 80, the “Plant response rating, Cocklebur” value [10, 29] was 0 and the “Plant response rating, Morningglory” value [11, 28] was 0. For the same compound, the “Plant response rating, Morningglory” value [11, 29] was 0, the “Rice plant response rating” value (rice (Oryza saliva) [12]) was 0 and the “Plant response rating, Rice” value (rice (Oryza saliva) [12]; Rate 125 g/ha) was 0. The “Plant response rating, Rice” value (rice (Oryza saliva) [12]; Rate 250 g/ha) was 0, the “Plant response rating (scale 0 to 100), Rice” value (rice (Oryza saliva) [12]) was 0 and the “Barnyardgrass plant response rating” value [13] was 0. The “Plant response rating, Barnyardgrass” value ([13]; Rate 125 g/ha) was 0, the “Plant response rating, Barnyardgrass” value ([13]; Rate 250 g/ha) was 0 and the “Plant response rating (scale 0 to 100), Barnyardgrass” value [13] was 0. The “Flatsedge plant response rating” value [14] was 0, the “Plant response rating, Flatsedge” value ([14]; Rate 125 g/ha) was 0 and the “Plant response rating, Flatsedge” value ([14]; Rate 250 g/ha) was 0. For the same compound, the “Plant response rating (scale 0 to 100), Flatsedge” value [14] was 0, the “Ducksalad plant response rating” value [15] was 0 and the “Plant response rating, Ducksalad” value ([15]; Rate 125 g/ha) was 0. The “Plant response rating, Ducksalad” value ([15]; Rate 250 g/ha) was 0, the “Plant response rating (scale 0 to 100), Ducksalad” value [15] was 0 and the “Plant response rating, Surinam grass” value [16, 30] was 0. The “Plant response rating, Surinam grass” value [16, 32] was 0, the “Plant response rating, Corn” value (corn (Zea mays) [17]; [30]) was 0 and the “Plant response rating, Corn” value (corn (Zea mays) [17]; [32]) was 0. The “Plant response rating, Foxtail, Giant” value [18, 30] was 0, the “Plant response rating, Foxtail, Giant” value [18, 32] was 90 and the “Plant response rating, Pigweed” value [19, 30] was 0. For the same compound, the “Plant response rating, Pigweed” value [19, 32] was 0, the “Plant response rating, Velvetleaf” value [20, 30] was 0 and the “Plant response rating, Velvetleaf” value [20, 32] was 0. The “Plant response rating, Blackgrass” value [21, 30] was 0, the “Plant response rating, Blackgrass” value [21, 32] was 0 and the “Plant response rating, Crabgrass” value [22, 30] was 0. The “Plant response rating, Crabgrass” value [22, 32] was 0, the “Plant response rating, Barnyardgrass” value [23, 30] was 0 and the “Plant response rating, Barnyardgrass” value [23, 32] was 0. The “Plant response rating, Wild Oat” value (wild oat (Avena fatua); [30]) was 0, the “Plant response rating, Wild Oat” value (wild oat (Avena fatua); [32]) was 0 and the “Plant response rating, Wheat” value [24, 30] was 0. The “Plant response rating, Wheat” value [24, 32] was 0, the “Plant response rating, Lambsquarters” value [25, 30] was 0 and the “Plant response rating, Lambsquarters” value [25, 32] was 0. The “Plant response rating, Cocklebur” value [26, 30] was 0, the “Plant response rating, Cocklebur” value [26, 32] was 0 and the “Plant response rating, Morningglory” value [27, 30] was 0. For the same compound, the “Plant response rating, Morningglory” value [27, 32] was 0.
